As a reminder, the IC50 is the concentration needed to halve the response being measured. The term AUC(0-inf) denotes total exposure, with the tail of the curve extrapolated. A word on the Cmax: it is the peak of the concentration-time curve. As a reminder, the Tmax is the time at which the peak concentration occurs. By half-life is commonly meant how long it takes for the measured level to halve. Usually CL/F stands for the apparent clearance, not corrected for the fraction that reaches the circulation.

Data set [1] deals with T1, Cytochrome P450 3A4 (Homo sapiens, UniProt P08684). In words: Inhibition of CYP3A4 using BFC substrate in which compound added to reaction mixture before addition of BFC substrate by fluorometric assay. In kind it is ADME.
Data set [2] deals with T2, Sodium/glucose cotransporter 2 (Homo sapiens, UniProt P31639).
T2 sequence (P31639 whole entry): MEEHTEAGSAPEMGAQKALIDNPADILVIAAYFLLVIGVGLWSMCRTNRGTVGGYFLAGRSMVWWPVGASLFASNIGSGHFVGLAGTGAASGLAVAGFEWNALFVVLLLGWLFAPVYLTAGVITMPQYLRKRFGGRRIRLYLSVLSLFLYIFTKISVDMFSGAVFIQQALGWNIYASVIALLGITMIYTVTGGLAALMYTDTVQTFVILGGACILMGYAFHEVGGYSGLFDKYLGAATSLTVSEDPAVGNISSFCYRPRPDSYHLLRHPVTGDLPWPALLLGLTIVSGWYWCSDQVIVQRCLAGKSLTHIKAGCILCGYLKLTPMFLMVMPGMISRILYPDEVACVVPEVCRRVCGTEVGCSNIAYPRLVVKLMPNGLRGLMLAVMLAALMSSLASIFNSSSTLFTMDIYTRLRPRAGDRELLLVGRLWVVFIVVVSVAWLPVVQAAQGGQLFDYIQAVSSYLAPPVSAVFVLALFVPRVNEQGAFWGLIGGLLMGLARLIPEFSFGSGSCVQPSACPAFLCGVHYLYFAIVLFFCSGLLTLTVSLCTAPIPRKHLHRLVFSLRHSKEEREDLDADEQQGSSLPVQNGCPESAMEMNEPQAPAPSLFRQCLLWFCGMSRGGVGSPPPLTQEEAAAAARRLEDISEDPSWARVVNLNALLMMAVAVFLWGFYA
Kind of data set: Inhibition of human SGLT2 expressed in CHO-K1 cells by [14C]AMG uptake assay. In kind it is cell-based.

Data set [3] concerns the target T1, Cytochrome P450 3A4. Kind of data set: Inhibition of CYP3A4 using BFC substrate in which compound added to reaction mixture simultaneously with BFC substrate by fluorometric assay. Type of data set: ADME.
The subject of data set [4] is Mus musculus. In words: (§1) Half life in db/db mouse at 10 mg/kg, po administered as single dose by LC-MS/MS system method. Type of data set: ADME, organism-based. More on the design: dose 10 mg/kg, route oral. The note with it: in vivo.
In data set [5] the test system is Mus musculus. In words: Hypoglycemic effect in db/db mouse assessed as reduction in glucose AUC (0 to 8 hrs) at 100 mg/kg, po administered as single dose by hexokinase method relative to untreated control. In kind it is functional. More on the design: scale not given: the % may be the effect or the level left.
The nature of data set [6]: AUC (infinity) in db/db mouse at 10 mg/kg, po administered as single dose by LC-MS/MS system method. In kind it is ADME, organism-based. On the set-up: time infinity, dose 10 mg/kg, route oral. The settings on record: plasma.
The subject of data set [7] is Mus musculus. In words: (§2) Apparent volume of distribution during terminal phase in db/db mouse at 10 mg/kg, po administered as single dose by LC-MS/MS system method. Type of data set: ADME, organism-based. On the set-up: dose 10 mg/kg, route oral. The note with it: in vivo.
For data set [8], the system named is Mus musculus. In words: (§3) Cmax in db/db mouse at 10 mg/kg, po administered as single dose by LC-MS/MS system method. Type of data set: ADME, organism-based. More on the design: dose 10 mg/kg, route oral. The note with it: in vivo.
Data set [9] in a line: Tmax in db/db mouse at 10 mg/kg, po administered as single dose by LC-MS/MS system method. The settings on record: in vivo. In kind it is ADME, organism-based. On the set-up: dose 10 mg/kg, route oral.
The test system of data set [10] is Mus musculus. In words: Hypoglycemic effect in db/db mouse assessed as reduction in glucose AUC (0 to 8 hrs) at 30 mg/kg, po administered as single dose by hexokinase method relative to untreated control. More on the design: scale not given: the % may be the effect or the level left. In kind it is functional.
In data set [11] the test system is Mus musculus. In words: Hypoglycemic effect in db/db mouse assessed as reduction in glucose level at 30 mg/kg, po measured 8 hrs post dose administered as single dose by hexokinase method. Type of data set: functional, organism-based. More on the design: dose 30 mg/kg.
In data set [12] the test system is Mus musculus. In words: Hypoglycemic effect in db/db mouse assessed as reduction in glucose level at 30 mg/kg, po measured 4 hrs post dose administered as single dose by hexokinase method. Type of data set: functional, organism-based. On the set-up: dose 30 mg/kg.
A short description of data set [13]: as §1. In kind it is ADME, organism-based. On the set-up: dose 10 mg/kg, route oral. The settings on record: db/db, in vivo.
The nature of data set [14]: Apparent oral clearance in db/db mouse at 10 mg/kg, po administered as single dose by LC-MS/MS system method. In kind it is ADME, organism-based. More on the design: dose 10 mg/kg, route oral. The settings on record: in vivo.
The nature of data set [15]: as §2. In kind it is ADME, organism-based. On the set-up: dose 10 mg/kg, route oral. The settings on record: db/db, in vivo, read-out: Vz/F.
Data set [16] is described as follows: as §3. More on the design: dose 10 mg/kg, route oral. In kind it is ADME, organism-based. The note with it: db/db, in vivo.
Data set [17] has as its target T1, Cytochrome P450 3A4. Kind of data set: Inhibition of CYP3A4 using BFC substrate by fluorometric assay. In kind it is ADME. The note with it: TDE = time-dependent effect.
Another data set concerns the target CYP3A4 (Homo sapiens, UniProt P08684). Kind of data set: in vitro. The note with it: probe BFC.

Activity calls are given as the source filed them. The calls are words filed in the database; no cut-off is given here. Some results are limits rather than exact numbers.

T1 sequence (P08684 whole entry): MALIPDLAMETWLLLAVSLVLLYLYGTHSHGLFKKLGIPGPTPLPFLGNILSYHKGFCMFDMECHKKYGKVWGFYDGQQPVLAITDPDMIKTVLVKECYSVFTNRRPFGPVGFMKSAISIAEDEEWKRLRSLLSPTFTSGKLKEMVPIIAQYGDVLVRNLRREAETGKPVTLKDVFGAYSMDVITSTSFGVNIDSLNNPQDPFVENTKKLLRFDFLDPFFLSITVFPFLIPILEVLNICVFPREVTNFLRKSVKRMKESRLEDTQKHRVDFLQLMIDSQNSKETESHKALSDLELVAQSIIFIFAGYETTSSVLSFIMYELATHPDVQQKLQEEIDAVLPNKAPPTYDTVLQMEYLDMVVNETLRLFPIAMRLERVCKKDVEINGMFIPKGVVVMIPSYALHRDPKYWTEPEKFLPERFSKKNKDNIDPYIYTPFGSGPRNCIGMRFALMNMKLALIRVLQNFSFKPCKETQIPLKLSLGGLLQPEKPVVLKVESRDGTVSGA
Chain of CYP3A4 (P08684 whole entry): as above
Description for CYP3A4: Potency index, ratio of IC50 for CYP3A4 (unknown origin) using BFC substrate in which compound added to reaction mixture simultaneously with BFC substrate to IC50 for CYP3A4 using BFC substrate in which compound added to reaction mixture before addition of BFC substrate

For the compound `CCc1ccc(Cc2cc([C@]3(O)C[C@H](CO)[C@@H](O)[C@H](O)[C@H]3O)c(OC)cc2OC)cc1`, the IC50 on Cytochrome P450 3A4 [1] is above 50000 nM; in data set [2], 10 nM; on Cytochrome P450 3A4 [3], 29000 nM.
In the case of `COc1ccc(Cc2cccc([C@@H]3C[C@H](CO)[C@@H](O)[C@H](O)[C@H]3O)c2)cc1`, the IC50 at Cytochrome P450 3A4 [1] was above 50000 nM; in data set [2] it was 73 nM; on Cytochrome P450 3A4 [3], above 50000 nM.
Compound `CCc1ccc(Cc2cc([C@]3(O)C[C@H](CO)[C@@H](O)[C@H](O)[C@H]3O)ccc2OC)cc1` returned an IC50 in [2] of 100 nM.
For `COc1ccc(Cc2ccccc2O[C@@H]2C[C@H](CO)[C@@H](O)[C@H](O)[C@H]2O)cc1`, in the data set on Mus musculus [4], the t1/2 turned out to be 161 min. In addition, the Activity with Mus musculus [5] is given as 41.6%. In [6], this compound showed an area under the curve AUC(0-inf) of 3070 ng·h/mL. Also, the Vz/F in the data set with Mus musculus [7] was determined as 12.586 L/kg. For the same compound, the Cmax in the data set with Mus musculus [8] amounted to 1640 ng/mL. For the same compound, in [9], the Tmax came out at 15 min.
With `Cc1ccc([C@@H]2O[C@H](CO)[C@@H](O)[C@H](O)[C@H]2O)cc1Cc1ccc(-c2ccc(F)cc2)s1` [CANAGLIFLOZIN ANHYDROUS], the IC50 in [2] was 6.7 nM.
As to `CCc1ccc(Cc2cccc([C@@H]3C[C@H](CO)[C@@H](O)[C@H](O)[C@H]3O)c2)cc1`, the IC50 at Cytochrome P450 3A4 [1] was above 50000 nM; in data set [2] it was 49 nM; at Cytochrome P450 3A4 [3], above 50000 nM.
Take `CCc1ccc(Cc2ccc(C)c([C@]3(O)C[C@H](CO)[C@@H](O)[C@H](O)[C@H]3O)c2)cc1`: the concentration for half-maximal inhibition (IC50) in data set [2] is 170 nM.
The same measure, in the same setting: the result for `CCc1ccc(Cc2ccc(OC)c([C@]3(O)C[C@H](CO)[C@@H](O)[C@H](O)[C@H]3O)c2)cc1` reads 14 nM.
Regarding `CCOc1ccc(Cc2ccc(CC)cc2)cc1[C@]1(O)C[C@H](CO)[C@@H](O)[C@H](O)[C@H]1O`, the Activity in the data set with Mus musculus [10] is given as 39.1%. Besides, the result in the data set with Mus musculus [11] was inactive. In [2], this compound registered an IC50 of 9.9 nM. The result in the data set on Mus musculus [12] was Active.
Regarding `CCOC(=O)OC[C@H]1O[C@@H](Oc2ccccc2Cc2ccc(OC)cc2)[C@H](O)[C@@H](O)[C@@H]1O` [SERGLIFLOZIN ETABONATE], in the data set with Mus musculus [4], the t1/2 is 49.2 min. Moreover, the result in the data set on Mus musculus [11] was inactive. In data set [6], this compound registered an AUC(0-inf) of 2970 ng·h/mL. Moreover, in the data set with Mus musculus [12], the result was Active. For the same compound, the Vz/F in the data set on Mus musculus [7] worked out at 3.315 L/kg. In the data set on Mus musculus [8], this compound registered a Cmax of 3360 ng/mL. The Tmax in [9] turned out to be 15 min.
In data set [2], `CCc1ccc(Cc2ccc(C)c([C@@H]3C[C@H](CO)[C@@H](O)[C@H](O)[C@H]3O)c2)cc1` showed an IC50 of 52 nM.
Turning to `CCOc1ccc(Cc2ccc(CC)cc2)cc1[C@@H]1C[C@H](CO)[C@@H](O)[C@H](O)[C@H]1O`, in the data set on Mus musculus [10], the Activity stood at 42.6%. In data set [13], this compound gave a half-life of 94.2 min. Moreover, the outcome in the data set with Mus musculus [11] and with Mus musculus [12] was Active. The IC50 is above 50000 nM at Cytochrome P450 3A4 [1], 19 nM in [2] and 36600 nM on Cytochrome P450 3A4 [3]. In addition, the CL/F in data set [14] is 26.7 mL/min/kg. Moreover, the AUC(0-inf) in data set [6] is 6240 ng·h/mL. In data set [15], the Vd/F came out at 3.63 L/kg. This compound also registered a Cmax in data set [16] of 3680 ng/mL. Further, the Tmax in data set [9] was 15 min.
As for `CCc1ccc(Cc2cc([C@@H]3C[C@H](CO)[C@@H](O)[C@H](O)[C@H]3O)ccc2OC)cc1`, in data set [2], the IC50 worked out at 8.3 nM.
Turning to `OC[C@H]1C[C@@H](c2cccc(Cc3ccc(C4CC4)cc3)c2)[C@H](O)[C@@H](O)[C@@H]1O`, the “inhibition (INH)” value at Cytochrome P450 3A4 [17] is on record as “tde”. The IC50 at Cytochrome P450 3A4 [1] came out at 33000 nM; in data set [2], 11 nM; on Cytochrome P450 3A4 [3], 76000 nM. Further, the IC50 shift at CYP3A4 turned out to be 2.3.
For `CCc1ccc(Cc2ccc(OC)c([C@@H]3C[C@H](CO)[C@@H](O)[C@H](O)[C@H]3O)c2)cc1`, the IC50 on Cytochrome P450 3A4 [1] was above 50000 nM; in [2] it was 12 nM; on Cytochrome P450 3A4 [3], above 50000 nM.
For `CCc1ccc(Cc2cc([C@@H]3C[C@H](CO)[C@@H](O)[C@H](O)[C@H]3O)c(OC)cc2OC)cc1`, the IC50 at Cytochrome P450 3A4 [1] came out at 40300 nM; in [2] it was 8.5 nM; at Cytochrome P450 3A4 [3] it was 25700 nM. In addition, the IC50 shift on CYP3A4 was 0.6.
